Test system: 874868-142-R-J2-PDC complex spheroids, growth % test/control
Experiment: Anticancer human tumor 874868-142-R-J2-PDC patient-derived head and neck squamous carcinoma cell line growth inhibition [CLK]
Details: for IC50: curve of first compound; for viability, T/C: stronger effect = lower value; active = viability on the fitted dose curve at most 10% of control; inactive = the rest
Excerpt: A high-throughput screen of multi-cell type tumor spheroids was designed to identify active combinations of […] and targeted small molecules. Complex spheroids include a stromal component modeled by human endothelial cells (HUVEC) and fibroblasts modeled by human mesenchymal stem cells (MSCs). The concentration ranges selected for each drug and investigational agent were based upon clinically achievable concentrations if the clinical Cmax of the agent was known.
Compounds. The drugs and investigational agents: cirtuvivint (SM08502; NSC835563), CC-671 (NSC850746), vemurafenib (NSC761431), tapotoclax (NSC804041), sotorasib (NSC818433), adagrasib (NSC831453), MRTX-1133 (NSC836407), BAY2416964 (NSC825713), copanlisib (NSC816437), inavolisib (NSC800729), abemaciclib (NSC768073), osimertinib (NSC779217), entinostat (NSC756642), eltanexor (KPT-8602, NSC794443), venetoclax (NSC766270), ceralasertib (NSC777638), bortezomib (NSC756655), olaparib (NSC753686), talazoparib (NSC767125), alisertib (NSC759677), peposertib (NSC802822), gemcitabine (NSC613327), 5-fluorouracil (NSC19893), SN-38 (NSC673596), oxaliplatin (NSC266046), paclitaxel (NSC125973), and doxorubicin (NSC123127), were obtained from the National Cancer Institute (NCI) Developmental Therapeutics Program Chemical Repository. The FDA-approved anticancer drug set is available from the Developmental Therapeutics Program at https://dtp.cancer.gov/organization/dscb/obtaining/available plates.htm. […] The stock solutions were prepared in dimethyl sulfoxide (DMSO, Sigma-Aldrich, St. Louis, MO, cat. D2650), except for the platinum complexes which were prepared in saline (Quality Biological, Gaithersburg, MD, cat. 114-055-101), at 800-fold the tested concentration and stored at -70 degrees C prior to their use. All drugs and investigational agents were tested over a range starting from a high concentration at or near the clinical Cmax and decreasing in half-log increments. If the clinical Cmax for an agent had not been determined, the highest concentration tested was 10 microM.
Cell Culture. All cells were maintained in an incubator at 37 degrees C and 5% CO2 with 95% humidity. The PDC lines were cultured according to standard operating procedures established by the NCI PDMR. Briefly, all PDCs were thawed and cultured in Matrigel-coated flasks prepared with a working solution of 1X Ham's F-12 nutrient mix, without supplementation (Invitrogen, Waltham, MA, cat. 11765054), 100 U/mL penicillin-streptomycin (Invitrogen, cat. 15140122), and 2.5% Matrigel (Corning Inc., Corning, NY, cat. 354248) for the first three passages. The 947758-054-R-J2-PDC line was cultured in 6B/Colon 1A media, which includes advanced DMEM/F-12 (Thermo Fisher Scientific, cat. 12634028), 10 mM HEPES (Thermo Fisher Scientific, cat. 15630080), 1X GlutaMAX supplement (Thermo Fisher Scientific, cat. 35050061), 0.1 mg/mL primocin (InvivoGen, cat. ant-pm-2), 10% defined fetal bovine serum, heat inactivated (HyClone Laboratories Inc., cat. SH30070.03HI), 1.25 mM N-Acetyl-L-cysteine (Sigma-Aldrich, cat. A9165), 10 mM nicotinamide (Sigma-Aldrich, cat. N0636), 1X B-27 supplement (Thermo Fisher Scientific, cat. 17504044), 1X N-2 supplement (Thermo Fisher Scientific, cat. 17502048), and 10 microM Y-27632 dihydrochloride (Tocris Bioscience, cat. 1254). The 876862-298-R-J1-PDC was cultured in 6E media, which includes all 6B/Colon 1A media components plus 50% L-WRN conditioned media (ATCC, cat. CRL-3276), 50 ng/mL recombinant human EGF recombinant protein (hEGF; Thermo Fisher Scientific, cat. PHG0311), 10 ng/mL recombinant human fibroblast growth factor 10 (hGFG-10; PeproTech, cat. 100-26), 1 ng/mL recombinant human fibroblast growth factor 2 (hFGF-2; PeproTech, cat. 100-18B), and 1 µM prostaglandin E2 (PGE2; Tocris, cat. 2296). The 227483-062-R1-J1-PDC line was cultured in Panc media, containing all 6E components except hFGF-2, with the addition of 500 nM SB-431542 (Selleckchem, cat. S1067) and 10 nM gastrin (Tocris, cat. 3006). […]

[1] = second compound 0.0316 µM, first compound 0.0316 µM
[2] = second compound 0.0316 µM, first compound 0.1 µM
[3] = second compound 0.0316 µM, first compound 0.316 µM
[4] = second compound 0.0316 µM, first compound 1 µM
[5] = second compound 0.0316 µM, first compound 3.16 µM
[6] = second compound 0.0316 µM, first compound 10 µM
[7] = second compound 0.1 µM, first compound 0.0316 µM
[8] = second compound 0.1 µM, first compound 0.1 µM
[9] = second compound 0.1 µM, first compound 0.316 µM
[10] = second compound 0.1 µM, first compound 1 µM
[11] = second compound 0.1 µM, first compound 3.16 µM
[12] = second compound 0.1 µM, first compound 10 µM
[13] = second compound 0.316 µM, first compound 0.0316 µM
[14] = second compound 0.316 µM, first compound 0.1 µM
[15] = second compound 0.316 µM, first compound 0.316 µM
[16] = second compound 0.316 µM, first compound 1 µM
[17] = second compound 0.316 µM, first compound 3.16 µM
[18] = second compound 0.316 µM, first compound 10 µM
[19] = second compound 1 µM, first compound 0.0316 µM
[20] = second compound 1 µM, first compound 0.1 µM
[21] = second compound 1 µM, first compound 0.316 µM
[22] = second compound 1 µM, first compound 1 µM
[23] = second compound 1 µM, first compound 3.16 µM
[24] = second compound 1 µM, first compound 10 µM
[25] = second compound 3.16 µM, first compound 0.0316 µM
[26] = second compound 3.16 µM, first compound 0.1 µM
[27] = second compound 3.16 µM, first compound 0.316 µM
[28] = second compound 3.16 µM, first compound 1 µM
[29] = second compound 3.16 µM, first compound 3.16 µM
[30] = second compound 3.16 µM, first compound 10 µM
[31] = second compound 10 µM, first compound 0.0316 µM
[32] = second compound 10 µM, first compound 0.1 µM
[33] = second compound 10 µM, first compound 0.316 µM
[34] = second compound 10 µM, first compound 1 µM
[35] = second compound 10 µM, first compound 3.16 µM
[36] = second compound 10 µM, first compound 10 µM
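Also: spheroids exposed to the compounds for 7 days.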

C=CC(=O)N1CCN(c2nc(=O)n(-c3c(C)ccnc3C(C)C)c3nc(-c4c(O)cccc4F)c(F)cc23)C(C)C1 (centres undefined) + CN1CCN(c2cc(C(=O)Nc3cc4cc(-c5cnn(C)c5)ccc4cn3)ccn2)CC1
> 10 µM: IC50 (second compound 0.0316 µM) | IC50 (second compound 0.1 µM)
< 0.0316 µM: IC50 (second compound 0.316 µM) | IC50 (second compound 1 µM) | IC50 (second compound 3.16 µM) | IC50 (second compound 10 µM)
active: viability, T/C [19] 0.5% | viability, T/C [20] 0.38% | viability, T/C [21] 0.54% | viability, T/C [22] 2.26% | viability, T/C [23] 0.49% | viability, T/C [24] 0.41% | viability, T/C [25] 0.17% | viability, T/C [26] 2.77% | viability, T/C [27] 1.11% | viability, T/C [28] 0.43% | viability, T/C [29] 0.45% | viability, T/C [30] 0.24% | viability, T/C [31] 0.68% | viability, T/C [32] 0.21% | viability, T/C [33] 1.43% | viability, T/C [34] 0.18% | viability, T/C [35] 0.17% | viability, T/C [36] 3.04%
inactive: viability, T/C [1] 86.4% | viability, T/C [2] 98.4% | viability, T/C [3] 96.1% | viability, T/C [4] 131% | viability, T/C [5] 129% | viability, T/C [6] 125% | viability, T/C [7] 81% | viability, T/C [8] 73.3% | viability, T/C [9] 82.2% | viability, T/C [10] 86.3% | viability, T/C [11] 93.9% | viability, T/C [12] 109% | viability, T/C [13] 16.9% | viability, T/C [14] 16.9% | viability, T/C [15] 21.9% | viability, T/C [16] 11.1% | viability, T/C [17] 17.8% | viability, T/C [18] 12.2%

COC1C=CCC(C)C(C)S(=O)(=O)NC(=O)c2ccc3c(c2)N(CC2CCC21)CC1(CCCc2cc(Cl)ccc21)CO3 (centres undefined) + CN1CCN(c2cc(C(=O)Nc3cc4cc(-c5cnn(C)c5)ccc4cn3)ccn2)CC1
< 0.0316 µM: IC50 (second compound 0.316 µM) | IC50 (second compound 1 µM) | IC50 (second compound 3.16 µM) | IC50 (second compound 10 µM)
1.39 µM: IC50 (second compound 0.0316 µM)
active: viability, T/C [12] 8.09% | viability, T/C [16] 6.03% | viability, T/C [17] 6.07% | viability, T/C [18] 5.99% | viability, T/C [19] 0.48% | viability, T/C [20] 0.33% | viability, T/C [21] 1.14% | viability, T/C [22] 0.2% | viability, T/C [23] 2.7% | viability, T/C [24] 1.73% | viability, T/C [25] 0.85% | viability, T/C [26] 0.74% | viability, T/C [27] 0.27% | viability, T/C [28] 0.44% | viability, T/C [29] 0.33% | viability, T/C [30] 1.12% | viability, T/C [31] 0.79% | viability, T/C [32] 0.24% | viability, T/C [33] 0.61% | viability, T/C [34] 0.22% | viability, T/C [35] 1.51% | viability, T/C [36] 0.24%
inactive: viability, T/C [1] 101% | viability, T/C [2] 93.2% | viability, T/C [3] 66.2% | viability, T/C [4] 60.8% | viability, T/C [5] 34.7% | viability, T/C [6] 18.2% | viability, T/C [7] 77.1% | viability, T/C [8] 74.3% | viability, T/C [9] 65.2% | viability, T/C [10] 56.1% | viability, T/C [11] 15.2% | viability, T/C [13] 21.6% | viability, T/C [14] 14.9% | viability, T/C [15] 11.8%
1.15 µM: IC50 (second compound 0.1 µM)

Source: PubChem BioAssay AID2060601 (Molecular Pharmacology Branch, DTP, NCI, 2025)
